Data on three compounds can be found in patent US20260258035A1, “FIVE-MEMBERED AND SIX-MEMBERED NITROGEN-CONTAINING COMPOUND, AND INTERMEDIATE, PREPARATION METHOD AND USE THEREOF” (HANGZHOU SYNRX THERAPEUTICS BIOMEDICAL TECHNOLOGY CO., LTD., priority 2022, published 2026).

One data set has as its target PARG (Homo sapiens, UniProt Q86W56). Put plainly: Biochemical assay (PARG, TFMU-ADPr substrate). The conditions noted are these: PARG, TFMU-ADPr substrate.
The subject of a further data set is HCC1806. As to the kind of experiment: Cell viability assay (CellTiter-Glo). The class given is cell-based, Human. The following applies: HCC1806, 7 days, CellTiter-Glo, read-out: IC50 (nM) in cell viability assay. In general terms: In ATP-based viability assays light output follows the ATP content of the culture.
The target of the next data set is T1, PXR (Homo sapiens, UniProt O75469).
T1 construct: host or cells: DPX2 (HepG2)
T1 sequence (O75469 1-434): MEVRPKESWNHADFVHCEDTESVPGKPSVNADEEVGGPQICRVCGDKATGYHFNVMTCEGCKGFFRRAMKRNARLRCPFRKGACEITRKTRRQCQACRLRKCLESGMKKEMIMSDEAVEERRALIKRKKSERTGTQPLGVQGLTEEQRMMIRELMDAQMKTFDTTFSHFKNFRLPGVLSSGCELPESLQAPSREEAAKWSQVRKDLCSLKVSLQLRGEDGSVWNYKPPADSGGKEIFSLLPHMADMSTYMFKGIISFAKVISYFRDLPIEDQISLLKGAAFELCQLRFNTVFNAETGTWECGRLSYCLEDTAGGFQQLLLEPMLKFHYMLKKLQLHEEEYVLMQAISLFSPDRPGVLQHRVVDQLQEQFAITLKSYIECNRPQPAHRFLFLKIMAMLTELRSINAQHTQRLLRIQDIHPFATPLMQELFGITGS
As to the kind of experiment: PXR assay (DPX2 luciferase reporter cells). Type of data set: cell-based. The conditions noted are these: 24 h; for PXR Activation @30 uM (% Ctrl): positive control rifampicin. As to the method:
1) Information of Cell Line
DPX2 (HepG2 cells stably transfected with PXR and luciferase reporter) cells were purchased from Puracyp Inc (Carlsbad, CA).
2) Experimental Procedures a) Reagents and Consumables
The DPX2 cells were cultured in the growth medium containing 1000 fetal bovine serum. The DPX2 cells in a T-75 flask were cultured in the […] incubator at 37° C. with 950% relative humidity, and digested when the cells grew to cover 80-90% of the bottom of the flask.
The surface layer of the T-75 cultured cells was washed with 10 mL of PBS; PBS was pipetted; 3-5 mL of tryp sin was added; the cells were digested at 37° C. for 5 minutes or until the cells were digested to be suspended; and excessive medium containing fetal bovine serum was added to stop trypsinization. The cell suspension was transferred to a conical-bottomed centrifuge tube and centrifuged at 150 g rpm for 5 minutes at room temperature; the supernatant was carefully pipetted; and the cells were resuspended with the treatment medium, with the concentration adjusted to 3.2×10^5 cells/mL (incubation time: 24 hours, plate seeding density: […]). 25 μL of the cell suspension was added to each well of the 384-well cell culture plate.
The cell culture plate was placed and cultured for 24 h in the […] incubator with 9500 humidity at 37° C. c) Formulation of Compound
The stock solution of each of 1000× test compound, the positive control (rifampicin), and the negative control (propranolol) was prepared with DMSO. The final concentrations of the positive control (rifampicin) were 1 μM and 10 μM, and the final concentration of the negative control (propranolol) was 10 μM. The final concentrations of the test compound were 10 μM, 1 μM, 0.1 μM, or EC50 (30 μM, 10 μM, 3 μM, 1 μM, 0.3 μM, 0.1 μM). The final concentration of DMSO was 0.10. The cell culture plate was taken out from the incubator, and 25 nL of the stock solution of the positive control, negative control or test compound was directly added with Echo, each with three parallel concentrations. The cell culture plate was placed in the incubator and continued to be incubated for 24 h. Before starting the assay with the substrate, the cell morphology and the monolayer integrity were checked to ensure that the monolayer was of acceptable research quality. […]
d) Quantitative Detection with PXR Activation
After 24 hours of dosing, the culture could be quantitatively detected with PXR activation. The CellTiter-Fluor™ Cell Viability Assay Kit and One-Glo Luciferase reagent were equilibrated to room temperature. The GF-AFC substrate (10 μL) was added to the assay buffer (10 ml) to develop a 2× reagent, which was then diluted into a 1× reagent with 10 ml of PBS. The ONE-Glo Luciferase substrate was added to the ONE-Glo Luciferase assay buffer. The culture plate was taken out from the incubator; the medium was discarded; 1× of CellTiter-Fluor™ reagent was poured into the loading slot; 25 μL of reagent were added per well to the culture plate with a pipetting workstation; and the culture plate was then incubated in the incubator for 30 minutes. The cell culture plate was taken out from the incubator, and cooled slightly to room temperature; and the fluorescence value was determined with a fully automatic quantitative microplate reader, with the excitation light of 400 nm and the emission light of 505 nm. The ONE-Glo reagent was poured into the loading slot, with 25 μL per well, and the resulting mixture was gently mixed in the plate, and incubated at room temperature for 5 minutes to determine the luminescence value.

Data set [1] is described as follows: Solubility assay (FaSSGF / FaSSIF). The following applies: kinetic from dmso stock, 2 h at 25° C. Type of data set: physicochemical. Here is the method: 1). Preparation of Solutions:
The FaSSGF solution was prepared as follows: • a) preparation of FaSSGF buffer: dissolve 2.0 g of NaCl as the raw material in about 0.9 L of purified water; • b) adjustment of the pH of the buffer: adjust the pH of the buffer to 1.6 with 1N HCL, and replenish the buffer with purified water to the volume of 1 L; and • c) preparation of FaSSGF solution by addition of FaSSGF powder: add 0.06 g of the FaSSGF powder to about 0.5 L of the buffer, stir until the powder was completely dissolved, and make up for the volume (1 L) with the buffer.
The FaSSIF solution was prepared as follows: • a) preparation of FaSSIF buffer: dissolve 0.42 g of NaOH, 3.44 g of anhydrous NaH2PO4, and 6.19 g of NaCl as raw materials in about 0.9 L of purified water; • b) adjustment the pH of the buffer: adjust the pH of the buffer to 6.5 with 1 N NaOH or 1 N HCL, and replenish the buffer with purified water to the volume of 1 L; and • c) preparation of FaSSIF solution by addition of FaSSIF powder: add 2.24 g of the FaSSIF powder to about 0.5 L of the buffer, stir until the powder was completely dissolved, and make up for the volume (1 L) with the buffer.
2). Preparation of the Solution of Control Compound:
The control compound was weighed and dissolved in DMSO to 10 mM to obtain a stock solution.
3) Preparation of the Solution of Compound to be Tested:
The compound to be tested was formulated into a 10 mM DMSO stock solution.
4) Preparation of Internal Standard Solution:
a) The internal standard was weighed and dissolved in DMSO to 10 mM to obtain an internal standard stock solution (ISTD stock solution).
b) The internal standard stock solution was diluted to 500 nM (Tolbutamide) with an ACN:methano mixture (volume ratio: 1:1) to obtain a quenching solution.
a) The FaSSGF solution at pH 1.6 and the FaSSIF solution at pH 6.5 were pre-warmed; and then, the compound was injected into the buffer.
Once done, the samples were centrifuged at 12,000 rpm for 10 min, and the supernatant was transferred to a new tube. The supernatant was diluted 10-fold and 100-fold with the FaSSGF solution at pH 1.6 or the FaSSIIF solution at pH 6.5. 20 μL of each sample (1×, 10×, 100× and standard curve) was added to 500 μL of the IS solution. The resulting mixture was vortexed vigorously for 1 min and centrifuged at 4,500 rpm for 15 min at 4° C. 150 μL of the supernatant was transferred for LC-MS/MS sample analysis.

The target in data set [2] is PARG (poly ADP-ribonal hydrolase) (Homo sapiens, UniProt Q86W56). As to the kind of experiment: Biochemical assay (PARG, TFMU-ADPr substrate). The conditions noted are these: PARG, TFMU-ADPr substrate.
Where [3] appears, read: fassgf or other biorelevant, FaSSGF solution pH 1.6, 100 μM from DMSO stock, read-out: FaSSGF solubility.
The mark [4] stands for this setting: FaSSIF solution pH 6.5, 100 μM from DMSO stock, read-out: FaSSIF solubility.

The structures appear in SMILES notation. ≈ marks a conversion by molar mass, not a printed value. Where two headings read alike, the source gives them in different places.

PARG, sequence (Q86W56 whole entry): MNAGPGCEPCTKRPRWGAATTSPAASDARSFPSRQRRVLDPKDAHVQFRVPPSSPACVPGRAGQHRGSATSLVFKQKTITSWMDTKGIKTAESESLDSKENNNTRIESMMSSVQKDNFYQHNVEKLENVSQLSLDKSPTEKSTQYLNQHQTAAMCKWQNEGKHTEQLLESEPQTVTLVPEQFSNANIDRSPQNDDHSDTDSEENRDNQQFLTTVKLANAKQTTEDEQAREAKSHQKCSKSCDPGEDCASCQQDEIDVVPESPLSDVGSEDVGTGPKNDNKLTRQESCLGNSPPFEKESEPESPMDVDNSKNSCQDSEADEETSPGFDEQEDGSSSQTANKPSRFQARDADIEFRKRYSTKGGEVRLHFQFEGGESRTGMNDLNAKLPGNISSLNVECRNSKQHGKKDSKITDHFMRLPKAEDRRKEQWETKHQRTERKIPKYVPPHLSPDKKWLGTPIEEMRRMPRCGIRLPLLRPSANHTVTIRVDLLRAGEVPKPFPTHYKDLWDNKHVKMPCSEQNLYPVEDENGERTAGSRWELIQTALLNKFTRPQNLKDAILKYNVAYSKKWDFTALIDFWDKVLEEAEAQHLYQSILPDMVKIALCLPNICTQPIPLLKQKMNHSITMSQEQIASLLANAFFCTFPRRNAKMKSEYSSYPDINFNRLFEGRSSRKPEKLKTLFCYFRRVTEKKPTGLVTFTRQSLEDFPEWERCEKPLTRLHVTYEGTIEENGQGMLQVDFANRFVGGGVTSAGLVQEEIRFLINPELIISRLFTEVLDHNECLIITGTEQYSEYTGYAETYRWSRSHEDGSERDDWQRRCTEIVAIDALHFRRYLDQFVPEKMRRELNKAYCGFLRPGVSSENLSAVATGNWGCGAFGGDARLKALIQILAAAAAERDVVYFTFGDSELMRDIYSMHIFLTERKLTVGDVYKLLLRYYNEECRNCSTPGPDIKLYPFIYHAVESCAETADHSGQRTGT
PARG (poly ADP-ribonal hydrolase), sequence (Q86W56 whole entry): as above

For `N#CC1(NS(=O)(=O)c2cc(N3CCN(C(=O)C4CCO4)CC3)c3cnc(-c4nnc(C(F)(F)F)s4)n3c2)CC1` (stereo not shown) [Example 236, N-(1-cyanocyclopropyl)-8-(4-(oxetane-2-carbonyl)piperazin-1-yl)-3-(5-(trifluoromethyl)-1,3,4-thiadiazol-2-yl)imidazo[1,5-a]pyridine-6-sulfonamide], the IC50 against PARG was 3.8 nM; in the data set on HCC1806, 1100 nM. Also, the “PXR Activation @30 uM (Fold)” value at PXR is recorded as 1.5 Fold. Moreover, at PXR, the “PXR Activation @30 uM (% Ctrl)” value stood at 7 % Ctrl. Moreover, the solubility at 2 h in data set [1] (setting [3]) is 75.7 µM (≈ 44.1 µg/mL); in data set [1] (setting [4]) it was 82.6 µM (≈ 48.1 µg/mL).
`CC(C)C(=O)N1CCN(c2cc(S(=O)(=O)NC(C)C(F)(F)F)cn3c(-c4nnc(C(F)F)s4)ncc23)CC1` (stereo not shown) [Example 35, 3-(5-(difluoromethyl)-1,3,4-thiadiazol-2-yl)-8-(4-isobutyrylpiperazin-1-yl)-N-(1,1,1-trifluoropropan-2-yl)imidazo[1,5-a]pyridine-6-sulfonamide]: half-maximal inhibition in data set [2] (IC50) was put at 128 nM.
`N#CC1(NS(=O)(=O)c2cc(N3CCN(C(=O)C4CNC4)CC3)c3cnc(-c4nnc(C(F)(F)F)s4)n3c2)CC1` [Example 251, 8-(4-(azetidine-3-carbonyl)piperazin-1-yl)-N-(1-cyanocyclopropyl)-3-(5-(trifluoromethyl)-1,3,4-thiadiazol-2-yl)imidazo[1,5-a]pyridine-6-sulfonamide]: the concentration for half-maximal inhibition (IC50) on PARG came to 6.03 nM; in the data set with HCC1806 (Homo sapiens, HCC1806, 168 h), 8780 nM. Further, the “PXR Activation @30 uM (Fold)” value at PXR came to 1.5 Fold. In addition, the “PXR Activation @30 uM (% Ctrl)” value on PXR was 11 % Ctrl. In addition, the solubility at 2 h in data set [1] (setting [3]) turned out to be 80.6 µM (≈ 46.9 µg/mL); in data set [1] (setting [4]) it was 78.1 µM (≈ 45.4 µg/mL).

In general, IC50 refers to the point on the concentration scale where inhibition reaches its midpoint. By solubility is commonly meant how much of the substance goes into solution per volume.
